Measured values from patent publication US20250230147A1, “LACTAMS AS CBL-B INHIBITORS” (Genentech, Inc., priority 2021, published 2025).
Counter-ions that a name gives are not always drawn.

Key:
[1] = biological target: Cbl-b (Homo sapiens (Human), UniProt Q13191); assay: Cbl-b LCK Ub TR-FRET assay (Cbl-b Lck HTRF); format: biochemical
Protocol: Compounds were 3-fold serially diluted in DMSO in a 384-well polypropylene plate (#P-05525-BC; Labcyte) to generate a source plate with 10 concentrations of each compound, top concentration=2 mM. 80 nL of DMSO or compounds were transferred to each well of a black 384-well ProxiPlate (#6008260; PerkinElmer) using a Labcyte Echo. 1×assay buffer (50 mM HEPES pH7.0, 100 mM NaCl, 0.01% BSA, 0.01% Triton-X100, 1 mM DTT), 2×enzyme solution (16 nM Biotin-Cbl-b or 12 nM Biotin-c-Cbl in 1× assay buffer), 2×kinase mixture (120 nM His-LCK, 1 mM ATP, 10 mM MgCl2 in assay buffer) and 2.33×detection mixture (4.66×solution 1: 163 nM Anti-HA-D2 antibody (#610HADAB; PerkinElmer), 27.96 nM Streptavidin-EU (#AD0062; PerkinElmer), 1.398 mM EDTA in 1×assay buffer+4.66×solution 2: 2.796 μM UBE2D2/Methylated-HA-Ubiquitin thioester adduct (BostonBiochem) in 1×assay buffer) were prepared. 4 μL of 2× enzyme solution was added to each well containing compound, briefly centrifuged to mix, and incubated for 60 min at room temperature. 4 μL of 2× kinase mixture was added, briefly centrifuged to mix, and incubated for 90 min. at room temperature. 6 μL of detection mixture was added to all wells and briefly centrifuged before incubating for 20 min at room temperature. Plates were read for TR-FRET using an Envision at excitation 340 nm, emission at 615 and 665 nm, 4 flashes per well. IC50 was generated using no LCK as the low control and DMSO as the high control.
Cbl-b Lck HTRF data in Table 7 is measured according to Example 76 herein; C-cbl Lck HTRF data is measured according to Example 76 herein.

[2] = biological target: c-Cbl (Homo sapiens (Human), UniProt P22681); assay: C-Cbl LCK Ub TR-FRET assay (c-cbl Lck HTRF); format: biochemical; settings: for (fold-selectivity): C-cbl Lck HTRF IC50 relative to Cbl-b Lck HTRF IC50
c-Cbl, sequence (P22681 47-435): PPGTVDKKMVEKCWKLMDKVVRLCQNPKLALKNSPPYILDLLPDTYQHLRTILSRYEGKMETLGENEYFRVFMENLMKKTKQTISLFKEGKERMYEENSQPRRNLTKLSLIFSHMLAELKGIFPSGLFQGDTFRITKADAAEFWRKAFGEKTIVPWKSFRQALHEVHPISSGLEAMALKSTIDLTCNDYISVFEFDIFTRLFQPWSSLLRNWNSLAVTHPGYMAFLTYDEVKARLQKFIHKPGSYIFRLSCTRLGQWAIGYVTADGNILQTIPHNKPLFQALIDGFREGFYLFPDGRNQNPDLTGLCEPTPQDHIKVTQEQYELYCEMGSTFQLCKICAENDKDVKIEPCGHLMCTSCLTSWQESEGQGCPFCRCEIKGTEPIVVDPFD
Protocol: 6 μL of detection mixture was added to all wells and briefly centrifuged before incubating for 20 min at room temperature. […] IC50 was generated using no LCK as the low control and DMSO as the high control.

Cbl-b, sequence (Q13191 40-426): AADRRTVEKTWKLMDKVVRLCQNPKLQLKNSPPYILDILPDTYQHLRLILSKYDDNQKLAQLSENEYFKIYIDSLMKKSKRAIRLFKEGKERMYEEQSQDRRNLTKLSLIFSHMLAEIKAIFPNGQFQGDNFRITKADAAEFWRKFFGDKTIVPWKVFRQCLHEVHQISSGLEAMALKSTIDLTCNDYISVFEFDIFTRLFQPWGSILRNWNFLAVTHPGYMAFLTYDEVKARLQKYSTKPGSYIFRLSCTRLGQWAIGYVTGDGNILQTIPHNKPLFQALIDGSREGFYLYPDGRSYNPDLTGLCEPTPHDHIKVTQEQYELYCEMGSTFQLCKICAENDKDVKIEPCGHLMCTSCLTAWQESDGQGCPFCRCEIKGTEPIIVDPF

| Structure (SMILES) | IC50 [1] [µM] | IC50 [2] [µM] | (fold-selectivity) [2] |
| --- | --- | --- | --- |
| Cn1cnnc1CC1(c2cc(NCC3CCOCC3)nc(N3Cc4c(cc(CNC5(C)CCC5)cc4C(F)(F)F)C3=O)c2)CCC1 [Compound 335, 2-(4-(1-((4-methyl-4H-1,2,4-triazol-3-yl)methyl)cyclobutyl)-6-(((tetrahydro-2H-pyran-4-yl)methyl)amino)pyridin-2-yl)-6-(((1-methylcyclobutyl)amino)methyl)-4-(trifluoromethyl)isoindolin-1-one] | 0.18 | 0.19 | (1.0x) |
| Cc1cccc2c1CN(c1cccc(C3([C@@H](F)c4nncn4C)COC3)c1)C2=O [Compound 208, (R)-2-(3-(3-(fluoro(4-methyl-4H-1,2,4-triazol-3-yl)methyl)oxetan-3-yl)phenyl)-4-methylisoindolin-1-one] | 1.4 | 2.1 | 1.5x |
| C[C@H](c1cc2c(c(C(F)(F)F)c1)CN(c1cccc(C3([C@@H](F)c4nncn4C)COC3)c1)C2=O)N1CC(C)(F)C1 [Compound 109, 2-(3-(3((R)-fluoro(4-methyl-4H-1,2,4-triazol-3-yl)methyl)oxetan-3-yl)phenyl)-6-((R)-1-(3-fluoro-3-methylazetidin-1-yl)ethyl)-4-(trifluoromethyl)isoindolin-1-one] | 0.044 | 0.085 | 1.9x |
| CC(C)[C@H]1CN(C)CCN1Cc1cc2c(c(C(F)(F)F)c1)CN(c1cccc(C3([C@@H](F)c4nncn4C4CC4)COC3)c1)C2=O [Compound 486, 2-(3-(3-((R)-(4-cyclopropyl-4H-1,2,4-triazol-3-yl)fluoromethyl)oxetan-3-yl)phenyl)-6-(((S)-2-isopropyl-4-methylpiperazin-1-yl)methyl)-4-(trifluoromethyl)isoindolin-1-one] | 0.077 | 0.093 | (1.2x) |
| Cn1cnnc1[C@H](F)C1(c2cccc(N3Cc4c(cc(CNC5(C)CCC5)cc4C(F)F)C3=O)c2)COC1 [Compound 249, (R)-4-(difluoromethyl)-2-(3-(3-(fluoro(4-methyl-4H-1,2,4-triazol-3-yl)methyl)oxetan-3-yl)phenyl)-6-(((1-methylcyclobutyl)amino)methyl)isoindolin-1-one formate] | 0.012 | 0.02 | – |
| Cn1cnnc1[C@@H](F)C1(c2cccc(N3Cc4c(cc(CN5CC(C)(CO)C5)cc4C(F)(F)F)C3=O)c2)COC1 [Compound 75, (S)-2-(3-(3-(fluoro(4-methyl-4H-1,2,4-triazol-3-yl)methyl)oxetan-3-yl)phenyl)-6((3-(hydroxymethyl)-3-methylazetidin-1-yl)methyl)-4-(trifluoromethyl)isoindolin-1-one] | 0.25 | 0.58 | 2.3x |
| COCC1(F)CN(Cc2cc3c(c(C(F)(F)F)c2)CN(c2cccc(C4([C@@H](F)c5nncn5C)COC4)c2)C3=O)C1 [Compound 135, (R)-2-(3-(3-(fluoro(4-methyl-4H-1,2,4-triazol-3-yl)methyl)oxetan-3-yl)phenyl)-6-((3-fluoro-3-(methoxymethyl)azetidin-1-yl)methyl)-4-(trifluoromethyl)isoindolin-1-one] | 0.096 | 0.18 | 1.9x |
| Cn1cnnc1[C@@H](F)C1(c2cccc(N3Cc4c(cc(CN5CC(C)(CCl)C5)cc4C(F)(F)F)C3=O)c2)COC1 [Compound 104, (S)-6-((3-(chloromethyl)-3-methylazetidin-1-yl)methyl)-2-(3-(3-(fluoro(4-methyl-4H-1,2,4-triazol-3-yl)methyl)oxetan-3-yl)phenyl)-4-(trifluoromethyl)isoindolin-1-one] | 0.048 | 0.089 | 1.9x |
| CC[C@@H](C)Nc1cc(C2(Cc3nncn3C)COC2)cc(N2Cc3c(cccc3C(F)(F)F)C2=O)n1 [Compound 482, (R)-2-(6-(sec-butylamino)-4-(3-((4-methyl-4H-1,2,4-triazol-3-yl)methyl)oxetan-3-yl)pyridin-2-yl)-4-(trifluoromethyl)isoindolin-1-one] | 0.21 | 0.41 | (1.9x) |
